Results as given in the NIST ThermoML archive (doi:10.1021/je049909d).

Experiments:
[1] = refractive index (Na D-line) (dimensionless); details: 298.15 K; 101.33 kPa; Liquid; Standard Abbe refractometry
[2] = Liquid; for mass density / speed of sound: 298.15 K, 101.33 kPa; for speed of sound: Sing-around technique in a fixed-path interferometer
[3] = refractive index (Na D-line) (dimensionless); xn = mol fraction of the nth substance listed; details: 298.15 K, 101.3 kPa, Liquid, Standard Abbe refractometry
[4] = xn = mol fraction of the nth substance listed; details: 298.15 K, 101.3 kPa, Liquid; for speed of sound: Sing-around technique in a fixed-path interferometer

CO [methanol]
Details | mass density [kg/m3] | refractive index | speed of sound [m/s]
[1] | – | 1.32634 | –
[2] | 786.56 | – | 1101.8

Details | vapor or sublimation pressure [kPa]
[2], 337.9 K | 101.3

C=COC(C)=O [vinyl acetate]
Details | mass density [kg/m3] | refractive index | speed of sound [m/s]
[1] | – | 1.39253 | –
[2] | 925.59 | – | 1115.6

Details | vapor or sublimation pressure [kPa]
[2], 346.1 K | 101.3

C=COC(=O)CC [vinyl propanoate]
Details | mass density [kg/m3] | refractive index | speed of sound [m/s]
[1] | – | 1.40153 | –
[2] | 909.69 | – | 1133.9

[2], Ebulliometric method (Recirculating still)
Details | vapor or sublimation pressure [kPa]
320.7 K | 17.5
325.3 K | 21.5
329.4 K | 25.5
333 K | 29.5
336.3 K | 33.5
339.3 K | 37.5
341.9 K | 41.5
344.4 K | 45.5
346.8 K | 49.5
348.9 K | 53.5
350.9 K | 57.5
352.8 K | 61.5
354.7 K | 65.5
356.3 K | 69.5
358 K | 73.5
359.6 K | 77.5
361.1 K | 81.5
362.6 K | 85.5
364 K | 89.5
365.4 K | 93.5
366.7 K | 97.5
368 K | 101.3
368.1 K | 101.3

C=COC(=O)CC [vinyl propanoate] + C=COC(C)=O
Details | mass density, [4] [kg/m3] | refractive index, [3] | speed of sound, [4] [m/s]
x2 = 0.05 | 910.31 | 1.40114 | 1132.8
x2 = 0.102 | 911.01 | 1.4007 | 1131.8
x2 = 0.167 | 911.87 | 1.40017 | 1130.5
x2 = 0.207 | 912.4 | 1.39986 | 1129.7
x2 = 0.264 | 913.2 | 1.39937 | 1128.6
x2 = 0.297 | 913.66 | 1.39906 | 1128
x2 = 0.354 | 914.5 | 1.3985 | 1126.9
x2 = 0.403 | 915.25 | 1.39817 | 1126
x2 = 0.466 | 916.22 | 1.39762 | 1124.9
x2 = 0.504 | 916.8 | 1.3973 | 1124.2
x2 = 0.545 | 917.48 | 1.3969 | 1123.4
x2 = 0.601 | 918.39 | 1.3964 | 1122.4
x2 = 0.65 | 919.18 | 1.39591 | 1121.6
x2 = 0.696 | 919.96 | 1.39554 | 1120.8
x2 = 0.753 | 920.95 | 1.39493 | 1119.8
x2 = 0.8 | 921.79 | 1.39456 | 1119
x2 = 0.839 | 922.51 | 1.3941 | 1118.3
x2 = 0.901 | 923.67 | 1.39358 | 1117.2
x2 = 0.955 | 924.72 | 1.39295 | 1116.3

C=COC(=O)CC [vinyl propanoate] + CO
Details | mass density, [4] [kg/m3] | refractive index, [3] | speed of sound, [4] [m/s]
x2 = 0.05 | 907.45 | 1.40022 | 1132.9
x2 = 0.101 | 905 | 1.39881 | 1131.7
x2 = 0.168 | 901.52 | 1.3968 | 1130.2
x2 = 0.198 | 899.81 | 1.39573 | 1129.5
x2 = 0.242 | 897.25 | 1.39416 | 1128.4
x2 = 0.311 | 892.66 | 1.39141 | 1126.7
x2 = 0.337 | 890.92 | 1.39039 | 1126
x2 = 0.39 | 886.94 | 1.38789 | 1124.6
x2 = 0.452 | 881.8 | 1.38474 | 1122.8
x2 = 0.526 | 874.78 | 1.38044 | 1120.5
x2 = 0.547 | 872.66 | 1.37911 | 1119.8
x2 = 0.597 | 867.2 | 1.37583 | 1118
x2 = 0.657 | 859.7 | 1.37115 | 1115.9
x2 = 0.708 | 852.65 | 1.36685 | 1114.1
x2 = 0.748 | 846.29 | 1.36283 | 1112.6
x2 = 0.8 | 837.26 | 1.35725 | 1110.7
x2 = 0.85 | 827.36 | 1.3512 | 1108.7
x2 = 0.899 | 816.21 | 1.34444 | 1106.5
x2 = 0.949 | 803.01 | 1.33649 | 1104.9
